Results: BindingDB's records for PubMed 38252989 (IK Gujral Punjab Technical University)

Target: T1, Alpha-amylase 1A (Homo sapiens, UniProt P0DUB6)
T1 sequence (P0DUB6 whole entry): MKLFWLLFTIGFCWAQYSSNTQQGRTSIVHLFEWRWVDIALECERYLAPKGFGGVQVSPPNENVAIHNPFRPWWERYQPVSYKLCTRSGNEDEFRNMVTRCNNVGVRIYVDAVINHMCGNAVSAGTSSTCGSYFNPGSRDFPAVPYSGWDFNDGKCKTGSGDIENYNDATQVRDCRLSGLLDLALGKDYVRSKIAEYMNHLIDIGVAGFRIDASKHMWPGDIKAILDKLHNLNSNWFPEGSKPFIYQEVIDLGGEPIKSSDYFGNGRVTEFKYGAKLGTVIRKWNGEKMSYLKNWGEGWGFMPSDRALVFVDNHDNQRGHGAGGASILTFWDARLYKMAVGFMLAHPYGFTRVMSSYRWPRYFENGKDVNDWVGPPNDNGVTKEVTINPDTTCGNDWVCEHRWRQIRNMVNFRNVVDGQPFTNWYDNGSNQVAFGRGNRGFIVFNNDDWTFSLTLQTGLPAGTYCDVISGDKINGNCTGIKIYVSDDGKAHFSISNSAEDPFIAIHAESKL
Assay: Inhibition of Alpha-amylase (unknown origin)

Row | IC50 [nM] | SMILES
1 | 10 | O=C(O)CN1C(=O)SC(=Cc2ccc3c(c2)OCO3)C1=O
2 | 0.13 | N#Cc1ccccc1-c1ccc(N2C(=O)SC(=Cc3ccccc3Oc3ccccc3)C2=O)cc1
3 | 44 | C=CCN1C(=O)SC(=Cc2ccc(Cl)cc2Cl)C1=O
4 | 4.1 | O=C(O)CN1C(=O)SC(=Cc2cn(-c3ccccc3)nc2-c2ccc([N+](=O)[O-])cc2)C1=O
